Usually pIC50 stands for the IC50 on a negative log10 scale, so that one unit is a factor of ten. Read a high pIC50 as a small IC50.

pIC50: −log10 of the molar value.

For one assay, the system named is HT29 colon cancer cell line. In words: Cellular proliferation/viability assay (Cell-Titer-Glo), HT29. It counts as cell-based. The conditions noted are these: Homo sapiens, HT-29, 120 h; HT29, 5 days incubation. The procedure: (§1) Potency of test compounds in inhibiting cellular proliferation and/or cellular viability was estimated using a cellular ATP assay (Cell-Titer-Glo, Promega). Cells (HCT116, HT29 colon cancer cell lines, MCF-7 breast cancer cell line) were seeded in 384-well plates (Greiner μClear) at an appropriate density in 50:50 DMEM/Hams F-12 medium supplemented with 10% fetal calf serum, and allowed to attach overnight. Test compounds were sequentially diluted in DMSO and then culture medium, and added to the cells at appropriate concentrations. Cells were incubated with compound for 5 days. Cell number/viability was estimated using Cell-Titer-Glo reagent (Promega) according to manufacturers instructions.
With `CCN1C(=O)C(C)(C)c2cc(Nc3ncc(Cl)c(Nc4ccccc4NC(=O)/C=C/c4ccccc4)n3)ccc21` [compound 49], the pIC50 was 7.00.

The next assay concerns the target T1, Aurora A (Homo sapiens, UniProt O14965).
T1 sequence (O14965 1-403): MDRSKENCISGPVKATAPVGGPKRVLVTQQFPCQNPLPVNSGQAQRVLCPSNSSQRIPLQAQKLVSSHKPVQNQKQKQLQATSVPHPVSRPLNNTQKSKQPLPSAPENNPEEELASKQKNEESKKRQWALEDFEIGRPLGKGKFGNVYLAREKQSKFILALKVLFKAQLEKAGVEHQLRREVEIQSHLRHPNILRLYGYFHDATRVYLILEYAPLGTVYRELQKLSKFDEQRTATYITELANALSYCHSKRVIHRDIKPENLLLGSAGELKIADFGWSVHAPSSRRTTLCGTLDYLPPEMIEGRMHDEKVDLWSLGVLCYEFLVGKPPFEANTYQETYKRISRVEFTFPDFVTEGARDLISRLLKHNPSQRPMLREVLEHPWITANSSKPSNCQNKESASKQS
The experiment in a line: Aurora A in vitro kinase assay (ELISA). It counts as biochemical. The conditions noted are these: 30 μM ATP, 45 minutes. The procedure:
Kinase activities were measured by Enzyme-Linked Immunosorbent Assay (ELISA): Maxisorp 384-well plates (Nunc) were coated with recombinant fusion protein comprising residues 1-15 of Histone H3 fused to the N-terminus of Glutathione-S-Transferase. Plates were then blocked with a solution of 1 mg/mL I-block (Tropix Inc) in phosphate-buffered saline. Kinase reactions were carried out in the wells of the ELISA plate by combining an appropriate amount of Aur A and B kinases and/or mutants thereof with test compound and 30 μM ATP. The reaction buffer was 1× Kinase Buffer (Cell Signaling Technologies) supplemented with 1 μg/mL I-block. Reactions were stopped after 45 minutes by addition of 25 mM EDTA. After washing, substrate phosphorylation was detected by addition of anti-phospho-Histone H3 (Ser 10) 6G3 mAb (Cell Signaling cat #9706) and sheep anti-mouse pAb-HRP (Amersham cat# NA931V), followed by calorimetric development with TMB.
A general note: ELISA stands for enzyme-linked immunosorbent assay.
Regarding `CCN1C(=O)C(C)(C)c2cc(Nc3ncc(F)c(Nc4ccc(C(=O)NC(C)(C)C)cc4)n3)ccc21` [compound 5], the pIC50 was 7.97.

`CCN1C(=O)C(C)(C)c2cc(Nc3ncc(F)c(Nc4ccc(C(=O)Nc5ccccn5)cc4)n3)ccc21` [compound 26]: the negative logarithm of the IC50 (pIC50) was 7.64.

With `COCCN1C(=O)C(C)(C)c2cc(Nc3ncc(F)c(Nc4ccccc4NC(=O)C4CC4)n3)ccc21` [compound 38], the pIC50 is 8.14.

For `CC(=O)N1CCc2cc(Nc3ncc(Cl)c(Nc4ccccc4C(=O)NC4CC4)n3)ccc21` [compound 44], the pIC50 was 8.68.

The compound `CC(=O)N1CC(C)(C)c2cc(Nc3ncc(Cl)c(Nc4ccccc4C(=O)NC4CC4)n3)ccc21` [compound 48] gave a pIC50 of 7.61.

For `O=C(/C=C/c1ccccc1)Nc1ccccc1Nc1nc(Nc2ccc3c(c2)CC(=O)N3)ncc1Cl` [compound 50], the pIC50 is 8.22.

The compound `O=C(Nc1ccccc1Nc1nc(Nc2ccc3c(c2)CS(=O)(=O)C3)ncc1Cl)C1CC1` [compound 58] gave a pIC50 of 9.22.

In turn, `CN1C(=O)C(C)(C)c2cc(Nc3ncc(F)c(Oc4ccc(C(=O)Nc5ccccn5)cc4)n3)ccc21` [compound 59] gave a pIC50 of 7.98.

A further assay has as its system HCT116 colon cancer cell line. The experiment in a line: Cellular proliferation/viability assay (Cell-Titer-Glo), HCT116. It counts as cell-based. The conditions noted are these: Homo sapiens, HCT-116, 120 h; HCT116, 5 days incubation. The procedure: as §1
`CCN1C(=O)C(C)(C)c2cc(Nc3ncc(Cl)c(Nc4ccccc4NC(=O)/C=C/c4ccccc4)n3)ccc21` [compound 49] gave a pIC50 of 6.96.

Values taken from US20080318989A1, “Pyrimidine Kinase Inhibitors” (priority 2005, published 2008).
